From US20250223268A1, “4-Methylsulfonylbenzamide Compound, Preparation Method, Herbicidal Composition And Use” (Jiangsu Flag Chemical Industry Co., Ltd., priority 2022, published 2025)

Experiments:
Experiment in all cases: Greenhouse herbicidal activity assay, post-emergence
Type in all cases: in vivo
Settings in all cases: Post-emergence test, rate 150 g a.i./hm^2; grade by fresh weight inhibition rate
Cyperus iria = test system: Cyperus iria
How it was run: (§1)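 Weeds and crops grown in pots of nutrient soil in a growth chamber to the 3-6 leaf stage, then foliar-sprayed and air-dried. Fresh weight inhibition scored 14-21 days after treatment and graded A (≥80%) through E (<20%).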

Digitaria sanguinalis = test system: Digitaria sanguinalis
How it was run: as §1

Echinochloa crusgalli = test system: Echinochloa crusgalli
How it was run: as §1

Eclipta prostrata = test system: Eclipta prostrata
How it was run: as §1

Leptochloa chinensis = test system: Leptochloa chinensis
How it was run: as §1

Compound: CC(C)[S+]([O-])c1c(S(C)(=O)=O)ccc(C(=O)Nc2ncnn2C)c1Cl (single isomer, unassigned) [Compound 2-9]
- Control efficacy grade, Cyperus iria (Cyperus iria): A (Fresh weight inhibition rate≥80% to 100%)
- Control efficacy grade, Digitaria sanguinalis (Digitaria sanguinalis): A (Fresh weight inhibition rate≥80% to 100%)
- Control efficacy grade, Echinochloa crusgalli (Echinochloa crusgalli): A (Fresh weight inhibition rate≥80% to 100%)
- Control efficacy grade, Eclipta prostrata (Eclipta prostrata): A (Fresh weight inhibition rate≥80% to 100%)
- Control efficacy grade, Leptochloa chinensis (Leptochloa chinensis): A (Fresh weight inhibition rate≥80% to 100%)

Compound: Cn1ncnc1NC(=O)c1ccc(S(C)(=O)=O)c([S+]([O-])CC2CC2)c1Cl (single isomer, unassigned) [Compound 2-29]
- Control efficacy grade, Cyperus iria (Cyperus iria): A (Fresh weight inhibition rate≥80% to 100%)
- Control efficacy grade, Digitaria sanguinalis (Digitaria sanguinalis): A (Fresh weight inhibition rate≥80% to 100%)
- Control efficacy grade, Echinochloa crusgalli (Echinochloa crusgalli): A (Fresh weight inhibition rate≥80% to 100%)
- Control efficacy grade, Eclipta prostrata (Eclipta prostrata): A (Fresh weight inhibition rate≥80% to 100%)
- Control efficacy grade, Leptochloa chinensis (Leptochloa chinensis): A (Fresh weight inhibition rate≥80% to 100%)

Compound: Cn1ncnc1NC(=O)c1ccc(S(C)(=O)=O)c([S+]([O-])CC2CC2)c1Cl (single isomer, unassigned) [Compound 2-30]
- Control efficacy grade, Cyperus iria (Cyperus iria): A (Fresh weight inhibition rate≥80% to 100%)
- Control efficacy grade, Digitaria sanguinalis (Digitaria sanguinalis): A (Fresh weight inhibition rate≥80% to 100%)
- Control efficacy grade, Echinochloa crusgalli (Echinochloa crusgalli): A (Fresh weight inhibition rate≥80% to 100%)
- Control efficacy grade, Eclipta prostrata (Eclipta prostrata): A (Fresh weight inhibition rate≥80% to 100%)
- Control efficacy grade, Leptochloa chinensis (Leptochloa chinensis): A (Fresh weight inhibition rate≥80% to 100%)

Compound: CCC(C)S(=O)(=O)c1c(S(C)(=O)=O)ccc(C(=O)Nc2nnc(C)o2)c1Cl (single isomer, unassigned) [Compound 3-25]
- Control efficacy grade, Cyperus iria (Cyperus iria): A (Fresh weight inhibition rate≥80% to 100%)
- Control efficacy grade, Digitaria sanguinalis (Digitaria sanguinalis): A (Fresh weight inhibition rate≥80% to 100%)
- Control efficacy grade, Echinochloa crusgalli (Echinochloa crusgalli): A (Fresh weight inhibition rate≥80% to 100%)
- Control efficacy grade, Eclipta prostrata (Eclipta prostrata): A (Fresh weight inhibition rate≥80% to 100%)
- Control efficacy grade, Leptochloa chinensis (Leptochloa chinensis): A (Fresh weight inhibition rate≥80% to 100%)

Compound: CCC(C)Sc1c(S(C)(=O)=O)ccc(C(=O)Nc2nnco2)c1Cl (single isomer, unassigned) [Compound 3-283]
- Control efficacy grade, Cyperus iria (Cyperus iria): A (Fresh weight inhibition rate≥80% to 100%)
- Control efficacy grade, Digitaria sanguinalis (Digitaria sanguinalis): A (Fresh weight inhibition rate≥80% to 100%)
- Control efficacy grade, Echinochloa crusgalli (Echinochloa crusgalli): A (Fresh weight inhibition rate≥80% to 100%)
- Control efficacy grade, Eclipta prostrata (Eclipta prostrata): A (Fresh weight inhibition rate≥80% to 100%)
- Control efficacy grade, Leptochloa chinensis (Leptochloa chinensis): A (Fresh weight inhibition rate≥80% to 100%)

Compound: CC(C)[S+]([O-])c1c(S(C)(=O)=O)ccc(C(=O)Nc2nnc(C3CC3)o2)c1Cl (single isomer, unassigned) [Compound 3-622]
- Control efficacy grade, Cyperus iria (Cyperus iria): A (Fresh weight inhibition rate≥80% to 100%)
- Control efficacy grade, Digitaria sanguinalis (Digitaria sanguinalis): A (Fresh weight inhibition rate≥80% to 100%)
- Control efficacy grade, Echinochloa crusgalli (Echinochloa crusgalli): A (Fresh weight inhibition rate≥80% to 100%)
- Control efficacy grade, Eclipta prostrata (Eclipta prostrata): A (Fresh weight inhibition rate≥80% to 100%)
- Control efficacy grade, Leptochloa chinensis (Leptochloa chinensis): A (Fresh weight inhibition rate≥80% to 100%)

Compound: CC(C)[S+]([O-])c1c(S(C)(=O)=O)ccc(C(=O)Nc2nnc(C3CC3)o2)c1Cl (single isomer, unassigned) [Compound 3-623]
- Control efficacy grade, Cyperus iria (Cyperus iria): A (Fresh weight inhibition rate≥80% to 100%)
- Control efficacy grade, Digitaria sanguinalis (Digitaria sanguinalis): A (Fresh weight inhibition rate≥80% to 100%)
- Control efficacy grade, Echinochloa crusgalli (Echinochloa crusgalli): A (Fresh weight inhibition rate≥80% to 100%)
- Control efficacy grade, Eclipta prostrata (Eclipta prostrata): A (Fresh weight inhibition rate≥80% to 100%)
- Control efficacy grade, Leptochloa chinensis (Leptochloa chinensis): A (Fresh weight inhibition rate≥80% to 100%)
